Entries after “also recorded” stand apart in the source; their conditions may differ.
What was measured:
[1] = tested on: anti-GBM nephrotoxic serum-induced crescentic glomerulonephritis (RPGN) in mice; assay: Survival in accelerated anti-GBM crescentic glomerulonephritis; conditions: AG1478-treated HB-EGF(+/+) mice
Description: Briefly, WT and HB-EGF−/− mice received subcutaneous injection with 200 μg normal sheep IgG (100 μl in each flank of normal sheep IgG (Sigma) diluted to 1 mg/ml in a solution of 50% freund complete adjuvent and 50% saline). Six days later (day 1), glomerulonephritis (GN) was induced by intravenous injection of 50 μl sheep anti-glomerular basement membrane (GBM) serum diluted to 7 mg/ml in saline. Serum injection was repeated twice (days 2 and 3), with serum dilution increased to 70 mg/ml. On days 0, 1, 2, 3, 5 and 7, mice received intraperitoneal injection of either AG1478 (LC Laboratories), a pharmacological inhibitor of EGFR tyrosine kinase activity (30 mg.kg-1.day-1 in 100 μl of a saline solution with 1% carboxymethylcellulose (CMC) and 10% DMSO), or 100 μl of saline solution with 1% CMC and 10% DMSO as control. On day 8, mice were sacrified after body weight measurement and 12 hours urines collection with metabolic cages. […] On day 14, mice were sacrified. Blood was obtained from mice by aortic catheterization. Kidneys from each mouse were processed for immunohistochemistry, protein and mRNA analysis, and the remaining half-kidney fixed in 10% neutral-buffered formalin for histological study.

[2] = tested on: anti-GBM nephrotoxic serum-induced crescentic glomerulonephritis (RPGN) in mice; assay: Histopathology and immunohistochemistry (crescentic glomeruli, CD3 positive cells) in accelerated anti-GBM crescentic glomerulonephritis; type: in vivo, mouse
[3] = target: T1, EGFR (Mus musculus, UniProt Q01279); assay: Phosphorylation of EGFR in renal cortex/glomeruli (western blot, immunofluorescence) during experimental RPGN; type: in vivo
T1 construct: Proteins were extracted from kidneys using a lysis buffer; from tissue; host or cells: mouse kidney (renal cortex, glomeruli); wild type and HB-EGF-/- mice on mixed C57BL/6J x 129 background
Description: On day 14, mice were sacrified.
For immunofluorescence in mouse tissues, cryostat sections of 4 μm were immediately fixed in acetone, washed in PBS and then incubated with antibodies in a humid incubator. Deposits of mouse IgG in kidney were evaluated using FITC rat anti-mouse IgG (FI2000, Vector) (1:100 dilution, incubation for 1 hour at room temperature).
Western blot analysis: Proteins were extracted from kidneys using a lysis buffer (Phosphosafe extraction buffer, Novagen) and quantified according to Bradford's method. […] Immunoblotting was performed using the rabbit anti phospho-EGFR (Cell Signaling) diluted 1:1,000 or a rabbit anti-EGFR diluted 1:5,000 (Cell Signaling) as control for lane loading. Then, horseradish peroxidase-linked donkey secondary antibody (Amersham Pharmacia Biotech) diluted 1:2,000 was added and revelation was subsequently made using ECL plus kit (Amersham Pharmacia Biotech) on autoradiography film, followed by densitometric analysis.

[4] = tested on: anti-GBM nephrotoxic serum-induced crescentic glomerulonephritis (RPGN) in mice; assay: Assessment of ascitis, renal function and albuminuria in accelerated anti-GBM crescentic glomerulonephritis; type: in vivo, mouse
Description: Assessment of […], renal function and albuminuria: […] Stage 2 to 4 were associated with clinically evident […] weight gain before sacrifice. Serum and urinary creatinine, and blood urea nitrogen (BUN) were quantified spectrophotometrically using a colorimetric method. Urinary albumin excretion was measured using a specific ELISA assay for quantitative determination of albumin inmouse urine (CellTrend GmbH).

[5] = day 8, AG1478 30 mg/kg i.p., wild type mice, 30 mg/kg
[6] = day 14, erlotinib preventive (d0-14) or curative (d4-14) protocol

T1 sequence (Q01279 25-1210): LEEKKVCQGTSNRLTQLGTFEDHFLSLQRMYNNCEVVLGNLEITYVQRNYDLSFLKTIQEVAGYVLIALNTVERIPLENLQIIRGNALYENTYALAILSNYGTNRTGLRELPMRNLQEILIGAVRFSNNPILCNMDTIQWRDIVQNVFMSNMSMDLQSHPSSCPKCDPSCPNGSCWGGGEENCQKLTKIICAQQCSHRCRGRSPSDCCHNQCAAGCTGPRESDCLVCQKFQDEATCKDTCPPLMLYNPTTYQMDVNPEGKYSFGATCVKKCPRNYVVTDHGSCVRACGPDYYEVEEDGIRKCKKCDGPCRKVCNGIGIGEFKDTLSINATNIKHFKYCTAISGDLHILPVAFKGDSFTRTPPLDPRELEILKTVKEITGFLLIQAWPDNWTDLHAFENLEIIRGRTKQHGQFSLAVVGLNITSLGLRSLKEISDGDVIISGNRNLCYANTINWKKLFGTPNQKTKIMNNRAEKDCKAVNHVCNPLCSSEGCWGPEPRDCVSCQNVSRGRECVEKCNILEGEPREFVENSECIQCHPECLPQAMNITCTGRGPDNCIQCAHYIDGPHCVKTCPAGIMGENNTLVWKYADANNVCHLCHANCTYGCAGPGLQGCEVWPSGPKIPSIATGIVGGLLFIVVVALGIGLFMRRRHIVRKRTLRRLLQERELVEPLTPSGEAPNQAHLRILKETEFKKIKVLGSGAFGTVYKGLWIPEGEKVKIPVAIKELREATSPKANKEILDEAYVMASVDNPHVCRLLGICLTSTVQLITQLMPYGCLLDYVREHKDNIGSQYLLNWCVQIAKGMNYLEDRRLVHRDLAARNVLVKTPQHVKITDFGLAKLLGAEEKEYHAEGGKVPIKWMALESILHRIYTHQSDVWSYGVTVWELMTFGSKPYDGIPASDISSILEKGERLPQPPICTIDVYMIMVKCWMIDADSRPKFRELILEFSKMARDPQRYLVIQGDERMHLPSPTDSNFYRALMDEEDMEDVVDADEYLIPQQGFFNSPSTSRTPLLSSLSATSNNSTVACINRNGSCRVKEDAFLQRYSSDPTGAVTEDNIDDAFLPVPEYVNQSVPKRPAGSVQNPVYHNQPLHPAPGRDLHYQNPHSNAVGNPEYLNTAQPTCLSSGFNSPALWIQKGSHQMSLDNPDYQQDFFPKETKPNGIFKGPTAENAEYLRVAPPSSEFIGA

Structure (SMILES)	death within 8 days of RPGN [1]	crescent formation / renal lesions (in words) [2, 5]	periglomerular and interstitial CD3+ cell infiltrates [2, 5]	% of crescentic glomeruli ([2]; day 8 after induction of RPGN, AG1478 30 mg/kg/day i.p., n=6)	phosphorylation of EGFR (in words) ([3]; AG1478 i.p. in wild type mice vs vehicle only, day 8)	pEGFR signal in glomeruli (immunofluorescence) ([3]; day 8 post NTS, AG1478 30 mg/kg/day i.p.)	phosphorylation of EGFR blunted (fold) ([3]; renal cortex, day 8 post NTS, AG1478 30 mg/kg/day i.p. vs vehicle)	pEFGR/EGFR ratio ([3]; renal cortex, western blot, day 8 post NTS, AG1478 30 mg/kg/day i.p., wild type mice, n=6)	incidence and severity of asciitis ([4]; day 8, AG1478 30 mg/kg i.p., vs vehicle)	albumin urinary leakage, renal function / renal failure (in words) ([4]; day 8, AG1478 30 mg/kg i.p., 30 mg/kg)	albuminuria ([4]; day 8, AG1478 30 mg/kg/day i.p., n=6)	BUN ([4]; day 8, AG1478 30 mg/kg/day i.p., n=6, in mM)	necrotic glomerular lesions, cellular crescents, tubular proteinaceous casts and diffuse CD3 positive cells infiltrates ([2]; day 14, delayed erlotinib from day 4 to day 14, Masson trichrome staining)	proportion of crescentic glomeruli ([2]; day 14, erlotinib 100 mg/kg/day per gavage, preventive (12 hours prior to anti-GBM serum), n=9)	development of glomerular injury (in words) [2, 6]	blood urea nitrogen ([4]; day 14, erlotinib 100 mg/kg/day per gavage, preventive, n=9)	renal failure / blood urea nitrogen levels (in words) [4, 6]
COc1cc2ncnc(Nc3cccc(Cl)c3)c2cc1OC [AG1478, 4-(3-Chloroanilino)-6,7-dimethoxyquinazoline]	no AG1478-treated HB-EGF(+/+) mice died	reduces crescent formation; also recorded: dramatically reduced the development of renal lesions	reduces crescent formation and T cells infiltrates; also recorded: absent; also recorded: more effective in preventing cell infiltrate than HB-EGF deficiency	6.8±1.7%	prevented the phosphorylation of EGFR	faint or no signal was detectable	~9 fold	11 % of vehicle only-treated mice	lower incidence and severity of asciitis	prevents albumin urinary leakage and renal failure; also recorded: renal function was preserved	8.9±2.3 g/mmol creatinine	6.39±2.0	–	–	–	–	–
C#Cc1cccc(Nc2ncnc3cc(OCCOC)c(OCCOC)cc23)c1.Cl [erlotinib, [6,7-bis(2-methoxyethoxy)-4-quinazolin-4-yl]-(3-ethynylphenyl)amine]	–	–	–	–	–	–	–	–	–	–	–	–	blunted	25.0±6.9 ° A)	blunted or stopped the development of glomerular injury	3.8 ± 0.4 mmol/L	prevented renal failure with normal blood urea nitrogen levels

From patent publication US8198266B2, “Use of an EGFR antagonist for the treatment of glomerolonephritis” (INSERM (Institut National de la Sante et de la Recherche …, priority 2006, dated 2012)
